Columns and labels:
[1] = system: MDA-MB-231 cells (breast cancer); test: MTT antiproliferative assay, MDA-MB-231; assay type: cell-based, human; conditions: for Growth inhibition (%) ± SEM / inhibition at 10 µM / inhibition at 30 µM: 72 h; for inhibition at 10 µM / inhibition at 30 µM: Homo sapiens, read-out: Growth inhibition (%) ± SEM
Method: (§1) The in vitro antiproliferative activities of the synthesized aminodiols 4–38 against a panel of different human cancer cell lines of gynecological origin, including cervical (SiHA and HeLa), breast (MCF7 and MDA-MB-231), and ovary (A2780) cancers were assayed by the MTT method. […] Cisplatin, a clinically applied anticancer agent, was used as a reference compound and the results are summarized in Figure 3 and Table S1 in Supporting Information. […] On the other hand, none of the prepared azole derivatives exerted relevant activity.
(§2) The growth-inhibitory effects of the gibberellic acid-based aminodiol derivatives were determined by a standard MTT (3-(4,5-dimethylthiazol-2-yl)-2,5-diphenyltetrazolium bromide) assay on a panel containing five cell lines, including Hela and Siha (cervical cancers); MDA-MB-231 and MCF-7 (breast cancers); and A2780 ovarian cancer cells. The most promising agents were additionally tested against NIH/3T3 mouse embryo fibroblast cells. All cell lines were purchased from the European Collection of Cell Cultures (Salisbury, UK) except SiHa, which was obtained from the American Tissue Culture Collection (Manassas, VA, USA). The cells were maintained in minimal essential medium supplemented with 10% fetal bovine serum, 1% non-essential amino acids, and 1% penicillin-streptomycin at 37 °C in a humidified atmosphere containing 5% CO2. All media and supplements were obtained from Lonza Group Ltd., (Basel, Switzerland). Cancer cells were seeded into 96-well plates (5000 cells/well), after an overnight incubation the test compound was added in 2 different concentrations (10 µM and 30 µM) and incubated for another 72 h under cell-culturing conditions. Then, 20 μL of 5 mg/mL MTT solution was added to each well and incubated for a further 4 h. The medium was removed, and the precipitated formazan crystals were dissolved in DMSO during 60 min of shaking at 37 °C. As the final step, the absorbance was measured at 545 nm by using a microplate reader (SPECTROStar Nano, BMG Labtech, Offenburg, Germany). Untreated cells were included as controls. […] These agents were additionally tested against NIH/3T3 fibroblasts to obtain results about their cancer selectivity. Two independent experiments were performed with five wells for each condition. Cisplatin (Ebewe GmbH, Unterach, Austria), a clinically used anticancer agent, was used as a positive control. Calculations were performed utilizing the GraphPad Prism 5.01 software (GraphPad Software Inc., San Diego, CA, USA).

[2] = system: A2780 ovarian cancer cells; test: MTT antiproliferative assay, A2780; assay type: cell-based, human; conditions: for Growth inhibition (%) ± SEM / inhibition at 10 µM / inhibition at 30 µM: 72 h; for inhibition at 10 µM / inhibition at 30 µM: Homo sapiens, read-out: Growth inhibition (%) ± SEM
Method: as §1, §2

[3] = system: NIH/3T3 mouse embryo fibroblast cells; test: MTT assay on non-cancerous fibroblasts (cancer selectivity); assay type: cell-based; conditions: for Growth inhibition (%) ± SEM: 72 h
Method: as §1, §2

[4] = system: HeLa cells (cervical cancer); test: MTT antiproliferative assay, HeLa; assay type: cell-based, human; conditions: 72 h; for inhibition at 10 µM / inhibition at 30 µM: Homo sapiens, read-out: Growth inhibition (%) ± SEM
Method: as §1, §2

[5] = system: SiHa cells (cervical cancer); test: MTT antiproliferative assay, SiHa; assay type: cell-based, human; conditions: 72 h; for inhibition at 10 µM / inhibition at 30 µM: Homo sapiens, read-out: Growth inhibition (%) ± SEM
Method: as §1, §2

| SMILES | inhibition at 10 µM ([1]; MDA-MB-231, 10 μM) | inhibition at 30 µM ([1]; MDA-MB-231, 30 μM) | melting point | inhibition at 10 µM ([2]; A2780, 10 μM) | inhibition at 30 µM ([2]; A2780, 30 μM) | inhibition at 10 µM ([4]; 10 μM) | inhibition at 30 µM ([4]; 30 μM) | inhibition at 10 µM ([5]; 10 μM) | inhibition at 30 µM ([5]; 30 μM) | further results |
| --- | --- | --- | --- | --- | --- | --- | --- | --- | --- | --- |
| N.N.[Cl][Pt][Cl] [Cisplatin, reference compound] |  |  |  |  |  |  |  |  |  | Growth inhibition (%) ± SEM ([1]; MDA-MB-231, 10 μM): 67.51 ± 1.01%; Growth inhibition (%) ± SEM ([1]; MDA-MB-231, 30 μM): 87.75 ± 1.10%; IC50 ([1]; MDA-MB-231, 72 h): 3.74 µM; Growth inhibition (%) ± SEM ([2]; A2780, 10 μM): 83.57 ± 1.21%; Growth inhibition (%) ± SEM ([2]; A2780, 30 μM): 95.02 ± 0.28%; IC50 ([2]; A2780, 72 h): 1.3 µM; Growth inhibition (%) ± SEM ([3]; NIH/3T3, 10 μM): 73.88 ± 1.63%; Growth inhibition (%) ± SEM ([3]; NIH/3T3, 30 μM): 97.10 ± 0.15%; IC50 ([3]; NIH/3T3, 72 h): 5.49 µM; Growth inhibition (%) ± SEM ([4]; 10 μM): 42.61 ± 2.33%; Growth inhibition (%) ± SEM ([4]; 30 μM): 99.93 ± 0.26%; IC50 [4]: 12.4 µM; Growth inhibition (%) ± SEM ([5]; 10 μM): 88.64 ± 0.50%; Growth inhibition (%) ± SEM ([5]; 30 μM): 90.18 ± 1.78%; IC50 [5]: 7.84 µM |
| CCOC(=O)[C@H]1c2c(C)cccc2[C@H]2CC[C@]3(O)C[C@@]21C[C@]3(O)CNCc1ccc(OC)cc1 [Compound 11, Ethyl (4bS,7S,8S,9aR,10R)-7,8-dihydroxy-8-(((4-methoxybenzyl)amino)methyl)-1-methyl-4b,6,7,8,9,10-hexahydro-5H-7,9a-methanobenzo[a]azulene-10-carboxylate] | < 20% | 78.7 ± 1.47% | 224 to 225 °C | 31.7 ± 2.82% | 53.4 ± 1.68% | < 20% | 60.8 ± 2.44% | 30.7 ± 0.82% | 53.7 ± 0.76% |  |
| CCOC(=O)[C@H]1c2c(C)cccc2[C@H]2CC[C@]3(O)C[C@@]21C[C@]3(O)CNCc1cccc2ccccc12 [Compound 15, Ethyl (4bS,7S,8S,9aR,10R)-7,8-dihydroxy-1-methyl-8-(((naphthalen-1-ylmethyl)amino)methyl)-4b,6,7,8,9,10-hexahydro-5H-7,9a-methanobenzo[a]azulene-10-carboxylate] | < 20% | 95.96 ± 0.69% | 71 to 74 °C | 21.9 ± 1.5% | 95.48 ± 0.65% | 28.2 ± 0.88% | 96.7 ± 1.54% | 28.61 ± 0.15% | 97.95 ± 0.63% |  |
| CCOC(=O)[C@H]1c2c(C)cccc2[C@H]2CC[C@]3(O)C[C@@]21C[C@]3(O)CN(Cc1ccccc1)Cc1ccccc1 [Compound 17, Ethyl (4bS,7S,8S,9aR,10R)-8-((dibenzylamino)methyl)-7,8-dihydroxy-1-methyl-4b,6,7,8,9,10-hexahydro-5H-7,9a-methanobenzo[a]azulene-10-carboxylate] | < 20% | 36.9 ± 1.58% | 101.4 to 103 °C | < 20% | 78.9 ± 1.12% | 40.8 ± 1.19% | 45.6 ± 1.48% | < 20% | 47.1 ± 1.74% |  |
| CCOC(=O)[C@H]1c2c(C)cccc2[C@H]2CC[C@]3(O)C[C@@]21CC31CN(Cc2ccccc2)CO1 (stereo partly drawn) [Compound 24, Ethyl (4b’S,7’S,9a’R,10’R)-3-benzyl-7’-hydroxy-1’-methyl-4b’,6’,7’,10’-tetrahydro-5’H,9’H-spiro[oxazolidine-5,8’-[7,9a]methanobenzo[a]azulene]-10’-carboxylate] | < 20% | 42.4 ± 1.46% | 125 to 126 °C | < 20% | 34.1 ± 1.77% | < 20% | 53.9 ± 2.21% | < 20% | 31.9 ± 1.28% |  |

Reference: publication PMC9499365, “Stereoselective Synthesis and Application of Gibberellic Acid-Derived Aminodiols” (International Journal of Molecular Sciences, 2022)
